The results in this text go back to patent US9522886B2, “Pyridine derivatives” (Hoffmann-La Roche Inc., priority 2012, dated 2016).

One experiment addresses human CB1 receptors (Homo sapiens (Human), UniProt P21554). The experiment in a line: cAMP assay, CHO cells expressing human CB1 receptors. The experiment is classed as cell-based. To be noted: functional cAMP assay, CHO cells expressing human CB1; read-out: human CB1 EC50. For orientation: cAMP levels reflect the balance of adenylyl cyclase and phosphodiesterase activity.
For the next experiment, the target named is human CB2 receptors (Homo sapiens (Human), UniProt P34972). Put plainly: cAMP assay, CHO cells expressing human CB2 receptors. It counts as cell-based. To be noted: functional cAMP assay, CHO cells expressing human CB2; read-out: human CB2 EC50.

Counter-ions that a name gives are not always drawn. Some results are limits rather than exact numbers.

Chain of human CB2 receptors (P34972 whole entry): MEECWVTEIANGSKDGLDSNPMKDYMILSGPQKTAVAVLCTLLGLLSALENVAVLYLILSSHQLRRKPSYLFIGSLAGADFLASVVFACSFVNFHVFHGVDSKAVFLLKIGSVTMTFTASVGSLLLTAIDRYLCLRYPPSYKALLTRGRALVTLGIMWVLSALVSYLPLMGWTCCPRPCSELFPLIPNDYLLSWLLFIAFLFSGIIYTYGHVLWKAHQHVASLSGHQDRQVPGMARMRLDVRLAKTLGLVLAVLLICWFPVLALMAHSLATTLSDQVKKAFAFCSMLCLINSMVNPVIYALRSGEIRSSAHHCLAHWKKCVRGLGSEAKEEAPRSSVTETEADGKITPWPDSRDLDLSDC
Chain of human CB1 receptors (P21554 whole entry): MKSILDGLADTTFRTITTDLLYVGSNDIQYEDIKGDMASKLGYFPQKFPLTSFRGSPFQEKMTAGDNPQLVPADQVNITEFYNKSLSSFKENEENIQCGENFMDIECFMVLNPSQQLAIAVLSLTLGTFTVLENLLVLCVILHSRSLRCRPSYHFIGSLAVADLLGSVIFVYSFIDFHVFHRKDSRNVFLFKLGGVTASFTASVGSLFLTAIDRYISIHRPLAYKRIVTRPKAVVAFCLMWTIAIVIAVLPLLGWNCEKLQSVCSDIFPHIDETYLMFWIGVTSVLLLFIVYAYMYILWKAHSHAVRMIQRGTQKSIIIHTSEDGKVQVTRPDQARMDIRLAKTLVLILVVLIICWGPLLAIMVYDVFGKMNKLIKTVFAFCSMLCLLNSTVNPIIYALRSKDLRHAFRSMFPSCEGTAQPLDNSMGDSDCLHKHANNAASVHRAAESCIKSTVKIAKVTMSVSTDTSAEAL

For `NC(=O)CC1(NC(=O)c2ccc(N3CC(F)(F)C3)c(OCC3CC3)n2)CCN(C(=O)OCc2ccccc2)C1` (centres unmarked) [Example 83, Benzyl 3-(2-amino-2-oxoethyl)-3-[[6-(cyclopropylmethoxy)-5-(3,3-difluoroazetidin-1-yl)pyridine-2-carbonyl]amino]pyrrolidine-1-carboxylate], the EC50 – broadly, the concentration needed to bring the measured effect to its halfway point – on human CB1 receptors was above 10 µM; at human CB2 receptors it was 1.33 µM.

In the case of `CNC(=O)CC1(NC(=O)c2ccc(C3CC3)c(OCC3CC3)n2)COC1` [Example 38, 5-Cyclopropyl-6-cyclopropylmethoxy-pyridine-2-carboxylic acid (3-methylcarbamoylmethyl-oxetan-3-yl)-amide], the concentration for a half-maximal effect (EC50) on human CB1 receptors is above 10 µM; on human CB2 receptors, 0.101 µM.

Take `CC(=O)N1CCC(CC(N)=O)(NC(=O)c2ccc(C3CC3)c(Cc3ccc(F)cc3)n2)CC1` [Example 72, N-[1-Acetyl-4-(2-amino-2-oxoethyl)piperidin-4-yl]-5-cyclopropyl-6-[(4-fluorophenyl)methyl]pyridine-2-carboxamide]: the results for the concentration giving a half-maximal response (EC50) on human CB1 receptors and at human CB2 receptors were above 10 µM and 0.005 µM, respectively.

As for `CN(C)C(=O)CC1(NC(=O)c2ccc(C3CC3)c(OCC3CC3)n2)COC1` [Example 40, 5-Cyclopropyl-6-cyclopropylmethoxy-pyridine-2-carboxylic acid (3-dimethylcarbamoylmethyl-oxetan-3-yl)-amide], the EC50 on human CB1 receptors is above 10 µM; at human CB2 receptors, 0.345 µM.

Take `CC(C)CC(CNC(=O)c1ccc(N2CC(F)(F)C2)c(OCC2CC2)n1)C(=O)O` (centres unmarked) [Example 11, 2-[({[6-(Cyclopropylmethoxy)-5-(3,3-difluoroazetidin-1-yl)pyridin-2-yl]carbonyl}amino)methyl]-4-methylpentanoic acid]: the concentration giving a half-maximal response (EC50) at human CB1 receptors is above 10 µM; at human CB2 receptors it was 0.967 µM.

On to `NC(=O)CC(NC(=O)c1ccc(C2CC2)c(OCC2CC2)n1)C1CCCCC1` (single isomer, unassigned; (-)) [Example 17, (−)-5-Cyclopropyl-6-cyclopropylmethoxy-pyridine-2-carboxylic acid (2-carbamoyl-1-cyclohexyl-ethyl)-amide], for which the EC50 at human CB1 receptors was above 10 µM; on human CB2 receptors, 0.0062 µM.

For `NC(=O)CC1(NC(=O)c2ccc(C(F)(F)F)c(OCC3CC3)n2)CSC1` [Example 97, N-[3-(2-Amino-2-oxoethyl)thietan-3-yl]-6-(cyclopropylmethoxy)-5-(trifluoromethyl)pyridine-2-carboxamide], the EC50 is above 10 µM on human CB1 receptors and 0.0115 µM on human CB2 receptors.

Take `NC(=O)CC1(NC(=O)c2ccc(N3CC(F)(F)C3)c(OCC3CC3)n2)CCNCC1` [Example 85, N-[4-(2-Amino-2-oxoethyl)piperidin-4-yl]-6-(cyclopropylmethoxy)-5-(3,3-difluoroazetidin-1-yl)pyridine-2-carboxamide]: the EC50 is above 10 µM at human CB1 receptors and 0.27 µM on human CB2 receptors.

For the compound `NC(=O)CC(NC(=O)c1ccc(C2CC2)c(OCC2CC2)n1)C(F)(F)F` (single isomer, unassigned; (-)) [Example 31, (−)-5-Cyclopropyl-6-cyclopropylmethoxy-pyridine-2-carboxylic acid (1-carbamoylmethyl-2,2,2-trifluoro-ethyl)-amide], the EC50 on human CB1 receptors is above 10 µM; on human CB2 receptors it was 0.0088 µM.

With `NC(=O)[C@@H]1CCCC[C@@H]1NC(=O)c1ccc(N2CC(F)(F)C2)c(OCC2CC2)n1` (stereo in doubt) [Example 20, (+)-cis-6-Cyclopropylmethoxy-5-(3,3-difluoro-azetidin-1-yl)-pyridine-2-carboxylic acid (2-carbamoyl-cyclohexyl)-amide], the figures for the EC50 at human CB1 receptors and on human CB2 receptors were above 10 µM and 0.0158 µM, respectively.

For `CCOC(=O)CC(NC(=O)c1ccc(N2CC(F)(F)C2)c(OCC2CC2)n1)c1ccccc1` (centres unmarked) [Example 4, 3-{[6-Cyclopropylmethoxy-5-(3,3-difluoro-azetidin-1-yl)-pyridine-2-carbonyl]-amino}-3-phenyl-propionic acid ethyl ester], the figures for the 50% effective concentration (EC50) at human CB1 receptors and at human CB2 receptors were above 10 µM and 0.0042 µM, respectively.

As for `CC(C)[S+]([O-])c1nc(C(=O)NC2(CC(N)=O)COC2)ccc1Br` (centres unmarked) [Example 44, 5-Bromo-6-(propane-2-sulfinyl)-pyridine-2-carboxylic acid (3-carbamoylmethyl-oxetan-3-yl)-amide], the results for the EC50 on human CB1 receptors and on human CB2 receptors were above 10 µM and 0.413 µM, respectively.

In the case of `CC(C)(CC(N)=O)NC(=O)c1ccc(N2CC(F)(F)C2)c(OCC2CC2)n1` [Example 48, 6-Cyclopropylmethoxy-5-(3,3-difluoro-azetidin-1-yl)-pyridine-2-carboxylic acid (2-carbamoyl-1,1-dimethyl-ethyl)-amide], the EC50 is above 10 µM at human CB1 receptors and 0.0092 µM on human CB2 receptors.

For `CC(Oc1nc(C(=O)NC2(CC(N)=O)COC2)ccc1C1CC1)C(F)(F)F` (centres unmarked) [Example 33, 5-Cyclopropyl-6-(2,2,2-trifluoro-1-methyl-ethoxy)-pyridine-2-carboxylic acid (3-carbamoylmethyl-oxetan-3-yl)-amide], the half-maximal effective concentration (EC50) is above 10 µM at human CB1 receptors and 0.145 µM on human CB2 receptors.

Regarding `NC(=O)CC1(NC(=O)c2cccc(-c3ccc(F)c(Cl)c3)n2)CS(=O)(=O)C1` [Example 79, N-[3-(2-Amino-2-oxoethyl)-1,1-dioxothietan-3-yl]-6-(3-chloro-4-fluorophenyl)pyridine-2-carboxamide], the values for the EC50 at human CB1 receptors and on human CB2 receptors were above 10 µM and 0.0747 µM, respectively.

Regarding `NC(=O)CC1(NC(=O)c2ccc(C3CC3)c(Cc3ccc(F)cc3)n2)CCNCC1` [Example 66, N-[4-(2-Amino-2-oxoethyl)piperidin-4-yl]-5-cyclopropyl-6-[(4-fluorophenyl)methyl]pyridine-2-carboxamide; hydrochloride], the results for the concentration giving a half-maximal response (EC50) at human CB1 receptors and at human CB2 receptors were above 10 µM and 0.0013 µM, respectively.

Turning to `CC(C)CC(CC(=O)OC(C)(C)C)NC(=O)c1ccc(N2CC(F)(F)C2)c(OCC2CC2)n1` (centres unmarked) [Example 2, tert-Butyl 3-({[6-(cyclopropylmethoxy)-5-(3,3-difluoroazetidin-1-yl)pyridin-2-yl]carbonyl}amino)-5-methylhexanoate], the EC50 at human CB1 receptors was above 10 µM; on human CB2 receptors, 0.676 µM.

Consider `NC(=O)C[C@@H](NC(=O)c1ccc(C2CC2)c(OCC2CC2)n1)c1cccc(Cl)c1` [Example 43, 5-Cyclopropyl-6-cyclopropylmethoxy-pyridine-2-carboxylic acid [(R)-2-carbamoyl-1-(3-chloro-phenyl)-ethyl]-amide], for which the figures for the EC50 at human CB1 receptors and at human CB2 receptors were above 10 µM and 0.105 µM, respectively.

Take `NC(=O)CC1(NC(=O)c2ccc(C3CC3)c(Cc3ccc(F)cc3)n2)CN(C(=O)OCc2ccccc2)C1` [Example 74, Benzyl 3-(2-amino-2-oxoethyl)-3-[[5-cyclopropyl-6-[(4-fluorophenyl)methyl]pyridine-2-carbonyl]amino]azetidine-1-carboxylate]: the figures for the EC50 at human CB1 receptors and on human CB2 receptors were above 10 µM and 0.039 µM, respectively.

For `NC(=O)CC1(NC(=O)c2ccc(C3(O)CCC3)c(OCC3CC3)n2)CSC1` [Example 95, N-[3-(2-Amino-2-oxoethyl)thietan-3-yl]-6-(cyclopropylmethoxy)-5-(1-hydroxycyclobutyl)pyridine-2-carboxamide], the results for the concentration giving a half-maximal response (EC50) at human CB1 receptors and at human CB2 receptors were above 10 µM and 0.0011 µM, respectively.

For `NC(=O)CC1(NC(=O)c2ccc(C3(O)CCC3)c(OCC3CC3)n2)COC1` [Example 90, N-[3-(2-Amino-2-oxoethyl)oxetan-3-yl]-6-(cyclopropylmethoxy)-5-(1-hydroxycyclobutyl)pyridine-2-carboxamide], the results for the EC50 at human CB1 receptors and at human CB2 receptors were above 10 µM and 0.0088 µM, respectively.

For `NC(=O)CC1(NC(=O)c2ccc(N3CC(F)(F)C3)c(OCC3CC3)n2)CCOCC1` [Example 60, 6-Cyclopropylmethoxy-5-(3,3-difluoro-azetidin-1-yl)-pyridine-2-carboxylic acid (4-carbamoylmethyl-tetrahydro-pyran-4-yl)-amide], the figures for the EC50 at human CB1 receptors and on human CB2 receptors were above 10 µM and 0.0026 µM, respectively.

`CCOC(=O)CC(C)(C)NC(=O)c1ccc(N2CC(F)(F)C2)c(OCC2CC2)n1` [Example 5, 3-{[6-Cyclopropylmethoxy-5-(3,3-difluoro-azetidin-1-yl)-pyridine-2-carbonyl]-amino}-3-methyl-butyric acid ethyl ester]: the figures for the EC50 on human CB1 receptors and at human CB2 receptors were above 10 µM and 0.518 µM, respectively.

As for `CCOC(=O)C1(CNC(=O)c2ccc(N3CC(F)(F)C3)c(OCC3CC3)n2)CC1` [Example 71, Ethyl 1-[[[6-(cyclopropylmethoxy)-5-(3,3-difluoroazetidin-1-yl)pyridine-2-carbonyl]amino]methyl]cyclopropane-1-carboxylate], the EC50 at human CB1 receptors is above 10 µM; on human CB2 receptors, 0.0606 µM.

Regarding `CC(C)C[C@@H](CC(N)=O)NC(=O)c1ccc(C2CC2)c(OCC2CC2)n1` [Example 24, (−)-5-Cyclopropyl-6-cyclopropylmethoxy-pyridine-2-carboxylic acid (1-carbamoylmethyl-3-methyl-butyl)-amide], the concentration for a half-maximal effect (EC50) at human CB1 receptors was above 10 µM; on human CB2 receptors it was 0.003 µM.

As for `CC(=O)N1CC(CC(N)=O)(NC(=O)c2ccc(N3CC(F)(F)C3)c(OCC3CC3)n2)C1` [Example 73, N-[1-Acetyl-3-(2-amino-2-oxoethyl)azetidin-3-yl]-6-(cyclopropylmethoxy)-5-(3,3-difluoroazetidin-1-yl)pyridine-2-carboxamide], the concentration giving a half-maximal response (EC50) was above 10 µM at human CB1 receptors and 0.12 µM at human CB2 receptors.

`CC(C)(C)[C@@H](CC(N)=O)NC(=O)c1ccc(C2CC2)c(OCC2CC2)n1` [Example 29, 5-Cyclopropyl-6-cyclopropylmethoxy-pyridine-2-carboxylic acid ((R)-1-carbamoylmethyl-2,2-dimethyl-propyl)-amide]: the values for the 50% effective concentration (EC50) at human CB1 receptors and at human CB2 receptors were above 10 µM and 0.0232 µM, respectively.

As for `NC(=O)CC(NC(=O)c1ccc(C2CC2)c(OCC2CC2)n1)C1CC1` (single isomer, unassigned; (+)) [Example 28, (+)-5-Cyclopropyl-6-cyclopropylmethoxy-pyridine-2-carboxylic acid (2-carbamoyl-1-cyclopropyl-ethyl)-amide], the half-maximal effective concentration (EC50) on human CB1 receptors is above 10 µM; on human CB2 receptors, 0.003 µM.
